Reference: US9977014B2, “Nanoparticle sensor for nucleic acid-protein interaction” (Agency for Science, Technology and Research, priority 2013, dated 2018)
One block for each molecule: values may come before it.

Legend:
FoxA1 [1] = target: T1, FoxA1 (Homo sapiens, UniProt P55317); assay: Electrophoretic Mobility Shift Assay (EMSA), DNA probe binding; conditions: read-out: Binding constant (Kd)
T1 construct: Full-length FoxA1 cDNA was cloned into a pHISMBP (Addgene) expression vector; made in house; host or cells: E. coli BL21 (DE3)
T1 sequence (P55317 1-472): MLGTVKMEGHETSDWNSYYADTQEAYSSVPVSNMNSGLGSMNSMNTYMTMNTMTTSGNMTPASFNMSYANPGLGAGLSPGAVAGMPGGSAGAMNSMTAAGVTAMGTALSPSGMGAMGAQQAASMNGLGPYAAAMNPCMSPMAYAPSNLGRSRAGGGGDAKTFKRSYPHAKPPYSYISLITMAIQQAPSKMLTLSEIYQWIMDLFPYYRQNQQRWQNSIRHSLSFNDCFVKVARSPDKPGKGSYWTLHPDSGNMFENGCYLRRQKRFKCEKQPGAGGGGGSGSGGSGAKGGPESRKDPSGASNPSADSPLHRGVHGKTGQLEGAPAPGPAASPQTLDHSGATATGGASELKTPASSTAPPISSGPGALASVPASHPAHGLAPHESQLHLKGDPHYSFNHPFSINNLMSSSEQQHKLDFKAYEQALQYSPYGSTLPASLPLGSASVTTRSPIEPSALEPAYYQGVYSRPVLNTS
Text: (§1) Electrophoretic Mobility Shift Assay (EMSA): Invitrogen Corporation, Panomics Inc., Pierce Biotechnology, Viagene Inc.

His-MBP-FoxA1 = target: T2, His-MBP-FoxA1 (Homo sapiens, UniProt P55317); assay: Fluorescence anisotropy (FA) with FAM-labelled DNA probes; conditions: read-out: Binding constant (Kd)
T2 construct: Full-length FoxA1 cDNA was cloned into a pHISMBP (Addgene) expression vector; made in house; host or cells: E. coli BL21 (DE3)
T2 sequence (P55317 1-472): T1 sequence (P55317 1-472)
Protocol: Fluorescence anisotropy (FA): To determine the binding activity of His-MBP-FoxA1 to various FoxA1 probes containing its cognate DNA element, fluorescence anisotropy (FA) assay was utilized. The wildtype and two mutant probes for FoxA1, labelled with carboxyfluorescein (FAM), are as described earlier in Table 1. The assays were carried out in 384-well microplates (Corning) in which varying concentrations of protein were incubated with 2 nM of the labelled probe in PBS buffer for 20 min at room temperature (RT). To examine the effects of small molecule inhibitors on FoxA1 DNA binding, 125 nM of protein was pre-incubated with 5% DMSO, or 1 mM unlabelled probe, or 1.9 mM inhibitor for 1 h, at room temperature (RT), before the addition of 2 nM of the FAM labelled probe for another hour incubation.
Fluorescence anisotropy was measured using Synergy 2 Multi-Mode Microplate Reader with a 485/20-excitation and a 528/20-emission filter. The equilibrium dissociation constants for each wild-type probe were subsequently calculated by fitting the FoxA1 concentration vs. fluorescence polarization plot using Langmuir isotherm in Origin Pro 8 software. Standard error values (precision of the fitted values) were also obtained from the software after fitting.

FoxA1 [2] = target: T1, FoxA1; assay: CP/dsDNA-AuNP hybrid sensor protein titration; conditions: read-out: Binding constant (Kd)
Protocol: Qualitatively, the affinity of FOxA1 to different DNA probes can be identified by the degree of change in fluorescence intensity. For measuring the binding affinity constant Kd, protein titration was conducted using protein:DNA molar ratios of 0:1 to 5:1. That is, in a 50 nM solution of dsDNA-AuNPs, protein was added to achieve a concentration of 0-250 nM. The respective fluorescence intensity of the subsequent CP emission was recorded and compared with a control reaction containing no protein (FIG. 12).

FoxA1 [3] = target: T1, FoxA1; assay: Ligand inhibition of DNA-protein interaction, CP/Probe2-AuNP hybrid sensor; assay type: binding; conditions: protein:ligand 1:8
Protocol: For screening of ligand inhibition of the DNA-protein interaction (FIG. 4(B)), the ligand and protein were incubated at a molar ratio of 8:1 for 10-20 min at RT prior to the addition of dsDNA-AuNP in step (1) above. Steps (1), (2) and (3) were then repeated.
The proteins and each ligand were mixed at a ratio of 1:8 for 10 min. The protein-ligand pre-incubation solution was then mixed with dsDNA-AuNP and further incubated for 20 mins. The CP was then added as the last step. Positive and negative controls were also prepared, where the positive control was dsDNA-AuNP incubated with protein without ligand, and the negative control was dsDNA-AuNPs incubated without any protein added.

FoxA1 and AP2γ = assay: Ligand selectivity (positive = inhibitor, negative) listed in Table 3; assay type: binding; design: key: Positive: A positive ligand refers to a ligand that can inhibit protein binding to DNA; Negative: a negative ligand is a ligand that does not interrupt the binding
Text: 9 small ligands (as described in Table 3) were used to disrupt the DNA-protein interaction. […] It must be clearly understood that a particular ligand can bind strongly (with high affinity) to a certain protein but not inhibit the subsequent protein binding to DNA and vice versa. The main objective of this assay is to screen ligands that can interrupt protein binding to DNA regardless of their affinity to the protein. All of the ligands were kept as solutions in DMSO. Before using, they were thawed in a room temperature water bath.

AP-2γ [4] = target: T3, AP-2γ (Homo sapiens, UniProt Q92754); assay: Electrophoretic Mobility Shift Assay (EMSA), DNA probe binding; design: made in house; conditions: read-out: Binding constant (Kd)
T3 sequence (Q92754 whole entry, species assumed): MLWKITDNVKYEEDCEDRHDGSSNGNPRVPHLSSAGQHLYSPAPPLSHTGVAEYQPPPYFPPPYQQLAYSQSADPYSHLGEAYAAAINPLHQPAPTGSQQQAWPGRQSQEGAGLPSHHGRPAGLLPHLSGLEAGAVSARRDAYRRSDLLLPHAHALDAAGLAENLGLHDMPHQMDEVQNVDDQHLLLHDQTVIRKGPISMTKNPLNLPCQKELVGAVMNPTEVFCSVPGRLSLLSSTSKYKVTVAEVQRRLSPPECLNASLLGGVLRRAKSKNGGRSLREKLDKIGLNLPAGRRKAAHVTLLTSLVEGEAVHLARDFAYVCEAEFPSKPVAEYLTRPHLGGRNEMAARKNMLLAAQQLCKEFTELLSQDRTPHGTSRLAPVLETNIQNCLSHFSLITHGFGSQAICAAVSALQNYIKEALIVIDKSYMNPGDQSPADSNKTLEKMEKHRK
Text: as §1

AP-2γ [5] = target: T3, AP-2γ; assay: Fluorescence anisotropy (FA) with labelled DNA probes; design: made in house; conditions: read-out: Binding constant (Kd)
AP-2γ [6] = target: T3, AP-2γ; assay: CP/dsDNA-AuNP hybrid sensor protein titration
Protocol: The protein-DNA binding assay was conducted in three main steps (FIG. 4(A)): • 1) 50 nM dsDNA-AuNPs (referring to dsDNA concentration on the surface of AuNPs) was incubated with protein for 20-40 min at room temperature (RT).
Based on the relationship between protein concentration and fluorescence intensity, the binding constant, Kd, can be calculated using the equation: (F0−F)/(F−Fsat)=([protein]/Kd)^n. […] The slope, n, is the binding stoichiometry of protein to DNA.
The assay was also used to study a second transcription factor, AP-2γ (pI˜7.8), to test the applicability of the method. wtR3 and mtR3 were used as the probe DNA sequences (Table 2). […] From the relative decrease and increase in fluorescent intensity of CP with increasing concentration of AP-2γ, the binding affinity Kd and n were determined.

[7] = CP/dsDNA-AuNPs hybrid sensor (ACP-430)
[8] = CP/dsDNA-AuNPs hybrid sensor (ACP-560)
[9] = CP/dsDNA-AuNPs hybrid sensor (CCP-410)

Molecule: Probe1: FoxA1 DNA probe 5′-CACTTTGTTTGCAAAGC-3′ (SEQ ID NO: 1) with complementary strand; modified at the centre (antisense GCTTTGCAAACAAAGTG; DNA, backbone and methylation of C not given here; sense strand 5'-thiol-labelled, conjugated to gold nanoparticles)
Kd (FoxA1 [1]): 459 nM
Kd (His-MBP-FoxA1): 231 nM
Kd (FoxA1 [2]; [7]): 31.3 nM
Kd (FoxA1 [2]; [8]): 32.9 nM
Kd (FoxA1 [2]; [9]): 34.1 nM

Molecule: Probe2: Ideal FoxA1 DNA probe 5′-GTACTGTAAATAAAACT-3′ (SEQ ID NO: 3) with complementary strand (antisense AGTTTTATTTACAGTAC; DNA, backbone and methylation of C not given here; sense strand 5'-thiol-labelled, conjugated to gold nanoparticles)
Kd (FoxA1 [1]): 47.8 nM
Kd (His-MBP-FoxA1): 16 nM
Kd (FoxA1 [2]; [7]): 4.47 nM
Kd (FoxA1 [2]; [8]): 5.76 nM
Kd (FoxA1 [2]; [9]): 5.02 nM

Ligand effect on FoxA1-DNA binding (FoxA1 [3]; ACP-430/Probe2-AuNP and CCP-410/Probe2-AuNP): negligible effect
Ligand influence on FoxA1-Probe2 binding (FoxA1 [3]; ACP-430/Probe2-AuNP): retain its binding capability
Molecule: Nc1ccc2nc3ccc(=O)cc-3n(-c3ccccc3)c2c1 [Ligand 4]
Selectivity for FoxA1 and AP2γ (FoxA1 and AP2γ): Negative

Molecule: wtR3: GC rich wild-type DNA for AP-2γ, 5′-AAAGTGCCCAGAGCCCATG-3′ (SEQ ID NO: 7) with complementary strand (antisense CATGGGCTCTGGGCACTTT; DNA, backbone and methylation of C not given here; sense strand 5'-thiol-labelled, conjugated to gold nanoparticles)
Kd (AP-2γ [4]): 139 nM
Kd (AP-2γ [5]): 50.6 nM
Kd (AP-2γ [6]; read-out: Binding constant (Kd), CP/dsDNA-AuNPs hybrid sensor (ACP-430)): 12.4 nM
Kd (AP-2γ [6]; read-out: Binding constant (Kd), CP/dsDNA-AuNPs hybrid sensor (ACP-560)): 14.6 nM
Kd (AP-2γ [6]; read-out: Binding constant (Kd), CP/dsDNA-AuNPs hybrid sensor (CCP-410)): 13 nM
